In US20240277637A1, “CAPSAICIN DERIVATIVES IN THE TREATMENT OF IDIOPATHIC PULMONARY FIBROSIS” (aXichem AB, priority 2021, published 2024):
“Also recorded” adds a separate entry of the source.

Tests used:
[1] = tested on: human bronchial epithelial cells; test: Clonogenic cell survival assay, bronchial epithelial cells with PDGF-AB (Example 3); assay type: cell-based; settings: 10 ng/ml PDGF-AB, 14 days; for effect on clonogenic survival / PDGF inhibition (words): 0-10 μM
Protocol: (§1) Primary isolated human bronchial epithelial cells (NHBE) were used in this assay sourced from the American Tissue Culture Collection (Normal, Human (ATCC® BEAS-2B™)) and were cultured up to passage 6. […].
A clonogenic cell survival assay determines the ability of a cell to proliferate indefinitely. Cells were plated with increasing numbers (102 to 5×10^4) in 25 cm^2 flasks. SU9518, SU9518, a known inhibitor PDGF that has shown the ability to reduce radiation-induced fibroblast and endothelial cell activation, and phenylcapsaicin were used as positive controls. The cells were incubated with 0-10 μM (3% DMSO aqueous) of phenylcapsaicin, SU9518, and compounds 1 and 3-7 separately in the presence of 10 ng/ml PDGF-AB (Sigma Aldrich). The flasks were returned to the incubator for 14 days, after which they were stained with crystal violet (Sigma Aldrich). The colonies were counted and the surviving percentage was determined for clonogenic survival after correcting for plating efficiency.

[2] = tested on: human bronchial epithelial cells; test: Clonogenic cell survival assay, bronchial epithelial cells with PDGF-AB (Example 4); assay type: cell-based; settings: 10 ng/ml PDGF-AB, 14 days; for effect on clonogenic survival / PDGF inhibition (words): 0-10 μM
Protocol: as §1
The effects of Phenylcapsaicin (2) on clonogenic survival of bronchial epithelial cells, by plating the cells with increasing numbers (102 to 5×104) in 25 cm^2 flasks were investigated. SU9518* and Phenylcapsaicin were used as positive controls. The cells were incubated with 0-10 μM (3% DMSO aqueous) of Phenylcapsaicin, SU9518, and compounds 8-12 separately in the presence of 10 ng/ml PDGF-AB (Sigma Aldrich). The flasks were returned to the incubator for 14 days, after which they were stained with crystal violet (Sigma Aldrich). The colonies were counted and the surviving percentage was determined for clonogenic survival after correcting for plating efficiency. The synthetic analogs were all calculated at 100% purity for molar concentrations.

Question: Which “effect on clonogenic survival / PDGF inhibition (words)” value [1] does the source give for `COc1cc(CNC(=O)CCCCC#CC2CCCCC2)ccc1O` [Compound 3] here?
Answer: some modest activity

Question: And the “effect on clonogenic survival / PDGF inhibition (words)” value ([1]; listed as compound 3)?
Answer: PDGF inhibition activity dropped significantly

Question: And the “Clonogenic Survival Assay (percent)” value ([1]; 0.10 μM)?
Answer: 91%

Question: And the “Clonogenic Survival Assay (percent)” value ([1]; 0.50 μM)?
Answer: 83%

Question: What about the “Clonogenic Survival Assay (percent)” value ([1]; 1.00 μM) of the same compound?
Answer: 77%

Question: And the “Clonogenic Survival Assay (percent)” value ([1]; 2.00 μM)?
Answer: 74%

Question: And the “Clonogenic Survival Assay (percent)” value ([1]; 5.00 μM)?
Answer: 71%

Question: And the “Clonogenic Survival Assay (percent)” value ([1]; 10.00 μM)?
Answer: 73%

Question: And the “Clonogenic Survival Assay (percent)” value ([1]; 10.00 μM, listed as compound 3)?
Answer: 73%

Question: Which results are given for `COc1cc(CNC(=O)CCCCC#CC(C)(C)C)ccc1O` [Compound 4]?
Answer: effect on clonogenic survival / PDGF inhibition (words) [1]: did not show any PDGF inhibition; effect on clonogenic survival / PDGF inhibition (words) ([1]; listed as compound 4): completely eliminated the PDGF inhibiting activity; Clonogenic Survival Assay (percent) ([1]; 0.10 μM): 97%; Clonogenic Survival Assay (percent) ([1]; 0.50 μM): 95%; Clonogenic Survival Assay (percent) ([1]; 1.00 μM): 97%; Clonogenic Survival Assay (percent) ([1]; 2.00 μM): 96%; Clonogenic Survival Assay (percent) ([1]; 5.00 μM): 91%; Clonogenic Survival Assay (percent) ([1]; 10.00 μM): 91%; Clonogenic Survival Assay (percent) ([1]; 10.00 μM, listed as compound 4): 91%

Question: `COc1cc(CNC(=O)CCCCC#Cc2ccccc2)ccc1OC(C)=O` [Compound 5, 2-Methoxy-4-[(6-phenyl-5-hexynylcarbonylamino)methyl]phenyl acetate] was tested. Which “effect on clonogenic survival / PDGF inhibition (words)” value [1] did it give?
Answer: greater PDGF inhibition than both the parent PheCap (2) and the positive control SU9518; also recorded: significant improvement in PDGF inhibiting activity

Question: What about the “effect on clonogenic survival / PDGF inhibition (words)” value ([1]; listed as compound 5) of the same compound?
Answer: significant improvement in PDGF inhibiting activity

Question: What about the “Clonogenic Survival Assay (percent)” value ([1]; 0.10 μM) of the same compound?
Answer: 78%

Question: What about the “Clonogenic Survival Assay (percent)” value ([1]; 0.50 μM) of the same compound?
Answer: 60%

Question: What about the “Clonogenic Survival Assay (percent)” value ([1]; 1.00 μM) of the same compound?
Answer: 45%

Question: And the “Clonogenic Survival Assay (percent)” value ([1]; 2.00 μM)?
Answer: 32%

Question: And the “Clonogenic Survival Assay (percent)” value ([1]; 5.00 μM)?
Answer: 30%

Question: And the “Clonogenic Survival Assay (percent)” value ([1]; 10.00 μM)?
Answer: 20%

Question: What about the “Clonogenic Survival Assay (percent)” value ([1]; 10.00 μM, listed as compound 5) of the same compound?
Answer: 20%

Question: `COc1cc(CNC(=O)CCCCC#CC2CCCCC2)ccc1OC(C)=O` [Compound 6] was tested. Which “effect on clonogenic survival / PDGF inhibition (words)” value [1] did it give?
Answer: some modest activity

Question: What about the “effect on clonogenic survival / PDGF inhibition (words)” value ([1]; listed as compound 6) of the same compound?
Answer: gave better results than compound 3

Question: And the “Clonogenic Survival Assay (percent)” value ([1]; 0.10 μM)?
Answer: 89%

Question: What about the “Clonogenic Survival Assay (percent)” value ([1]; 0.50 μM) of the same compound?
Answer: 82%

Question: What about the “Clonogenic Survival Assay (percent)” value ([1]; 1.00 μM) of the same compound?
Answer: 76%

Question: What about the “Clonogenic Survival Assay (percent)” value ([1]; 2.00 μM) of the same compound?
Answer: 64%

Question: What about the “Clonogenic Survival Assay (percent)” value ([1]; 5.00 μM) of the same compound?
Answer: 69%

Question: And the “Clonogenic Survival Assay (percent)” value ([1]; 10.00 μM)?
Answer: 61%

Question: For `COc1cc(CNC(=O)CCCCC#CC(C)(C)C)ccc1OC(C)=O` [Compound 7], which “effect on clonogenic survival / PDGF inhibition (words)” value [1] is on record?
Answer: did not show any PDGF inhibition

Question: And the “effect on clonogenic survival / PDGF inhibition (words)” value ([1]; listed as compound 7)?
Answer: could not mediate the negative effects of the tert-butyl group

Question: What about the “Clonogenic Survival Assay (percent)” value ([1]; 0.10 μM) of the same compound?
Answer: 99%

Question: And the “Clonogenic Survival Assay (percent)” value ([1]; 0.50 μM)?
Answer: 96%

Question: And the “Clonogenic Survival Assay (percent)” value ([1]; 1.00 μM)?
Answer: 96%

Question: And the “Clonogenic Survival Assay (percent)” value ([1]; 2.00 μM)?
Answer: 91%

Question: And the “Clonogenic Survival Assay (percent)” value ([1]; 5.00 μM)?
Answer: 94%

Question: What about the “Clonogenic Survival Assay (percent)” value ([1]; 10.00 μM) of the same compound?
Answer: 93%

Question: Which results are given for `COc1cc(CNC(=O)CCCCCCc2ccccc2)ccc1O` [Compound 8, N-[(4-Hydroxy-3-methoxyphenyl)methyl]7-phenylheptanamide]?
Answer: effect on clonogenic survival / PDGF inhibition (words) [2]: did not show any reduction in clonogenic cell survival; Clonogenic Survival Assay (percent) ([2]; 0.10 uM): 97%; Clonogenic Survival Assay (percent) ([2]; 0.50 uM): 100%; Clonogenic Survival Assay (percent) ([2]; 1.00 uM): 97%; Clonogenic Survival Assay (percent) ([2]; 2.00 uM): 95%; Clonogenic Survival Assay (percent) ([2]; 5.00 uM): 96%; Clonogenic Survival Assay (percent) ([2]; 10.00 uM): 97%

Question: What does the source list for `C#CCCCCC(=O)NCc1ccc(O)c(OC)c1` [Compound 9]?
Answer: effect on clonogenic survival / PDGF inhibition (words) [2]: did not show any reduction in clonogenic cell survival; Clonogenic Survival Assay (percent) ([2]; 0.10 uM): 100%; Clonogenic Survival Assay (percent) ([2]; 0.50 uM): 97%; Clonogenic Survival Assay (percent) ([2]; 1.00 uM): 99%; Clonogenic Survival Assay (percent) ([2]; 2.00 uM): 96%; Clonogenic Survival Assay (percent) ([2]; 5.00 uM): 96%; Clonogenic Survival Assay (percent) ([2]; 10.00 uM): 99%

Question: How did the “Clonogenic Survival Assay (percent)” value ([2]; 0.10 uM) turn out when `COc1cc(CNC(=O)CCCCC#Cc2ccc([N+](=O)[O-])cc2)ccc1O` [Compound 10, N-[(4-Hydroxy-3-methoxyphenyl)methyl]-7-(p-nitrophenyl)-6-heptynamide] was run?
Answer: 73%

Question: What about the “Clonogenic Survival Assay (percent)” value ([2]; 0.50 uM) of the same compound?
Answer: 55%

Question: And the “Clonogenic Survival Assay (percent)” value ([2]; 1.00 uM)?
Answer: 51%

Question: What about the “Clonogenic Survival Assay (percent)” value ([2]; 2.00 uM) of the same compound?
Answer: 40%

Question: And the “Clonogenic Survival Assay (percent)” value ([2]; 5.00 uM)?
Answer: 41%

Question: What about the “Clonogenic Survival Assay (percent)” value ([2]; 10.00 uM) of the same compound?
Answer: 39%
